ChEMBL document CHEMBL1132650, “4,5-Dihydro-1,2,4-triazolo[1,5-a]quinoxalin-4-ones: excitatory amino acid antagonists with combined glycine/NMDA and AMPA receptor affinity” (J Med Chem, 1999)

Key:
[1] = molecular target: T1, Glutamate receptor ionotropic, NMDA 1 (Rattus norvegicus, UniProt P35439); assay: Functional antagonism at the N-methyl-D-aspartate glutamate receptor 1 was demonstarted by the ability to inhibit the binding of the channel-blocking agent [3H](+)-MK-801
[2] = molecular target: T1, Glutamate receptor ionotropic, NMDA 1; assay: Binding affinity towards N-methyl-D-aspartate glutamate receptor 1 in rat cortical membranes using [3H]glycine as radioligand; assay type: cell membranes
[3] = molecular target: T2, Glutamate receptor ionotropic, AMPA (Rattus norvegicus, UniProt P19490+P19491+P19492+P19493); assay: Binding affinity towards ionotropic glutamate receptor AMPA in rat cortical membranes using [3H]AMPA radioligand; assay type: cell membranes
[4] = molecular target: T2, Glutamate receptor ionotropic, AMPA; assay: The compound was tested for its binding affinity towards AMPA receptor in rat cortical membranes using [3H]AMPA radioligand; assay type: cell membranes
[5] = molecular target: T1, Glutamate receptor ionotropic, NMDA 1; assay: The compound was tested for its binding affinity towards Glycine/NMDA receptor in rat cortical membranes using [3H]glycine as radioligand; assay type: cell membranes
[6] = molecular target: T1, Glutamate receptor ionotropic, NMDA 1; assay: Functional antagonism at the NMDA receptor-ion channel complex was demonstarted by the ability to inhibit the binding of the channel-blocking agent [3H](+)-MK-801

Structure (SMILES)	EC50 [1] [µM]	Ki [2] [µM]	Ki [3] [µM]	Ki [4] [µM]	Ki [5] [µM]	EC50 [6] [µM]
CCOC(=O)c1nc2c(O)nc3cc(Cl)ccc3n2n1	22.1	3	2.6	–	–	–
O=C(O)c1nc2c(=O)[nH]c3cc(Cl)cc(Cl)c3n2n1	1.35	0.14	1.53	–	–	–
CCOC(=O)c1nc2c(=O)[nH]c3cc(N)ccc3n2n1	> 100	> 100	> 100	–	–	–
CCOC(=O)c1nc2c(=O)[nH]c3cc(Cl)cc(Cl)c3n2n1	–	4.8	4.9	–	–	–
O=C(Nc1nn[nH]n1)c1nc2c(O)nc3cc(Cl)ccc3n2n1	–	5.1	2.4	–	–	–
NC(=O)c1nc2c(=O)[nH]c3cc(Cl)ccc3n2n1	–	7.2	11.7	–	–	–
CCOC(=O)c1nc2c(O)nc3cc(Cl)c(Cl)cc3n2n1	1.5	0.71	33.9	–	–	–
O=C(O)c1nc2c(=O)[nH]c3ccc(Cl)cc3n2n1	32.5	3.5	18.4	–	–	–
O=C(O)Cc1nc2c(O)nc3cc(Cl)ccc3n2n1	–	1.1	3.7	–	–	–
CCn1c(=O)c2nc(C(=O)O)nn2c2ccc(Cl)cc21	> 100	88	> 100	–	–	–
O=C(O)c1nc2c(=O)[nH]c3cc([N+](=O)[O-])ccc3n2n1	7.8	0.71	0.6	–	–	–
O=C(O)c1nc2c(O)nc3c([N+](=O)[O-])cc(Cl)cc3n2n1	> 100	4.5	4	–	–	–
O=C(NO)c1nc2c(O)nc3cc(Cl)ccc3n2n1	–	–	–	3	1.1	–
CCOC(=O)c1nc2c(=O)[nH]c3cc(C(F)(F)F)ccc3n2n1	–	1.8	3.6	–	–	–
CCOC(=O)c1nc2c(O)nc3cc(Br)ccc3n2n1	–	2.6	3.3	–	–	–
OCc1nc2c(O)nc3cc(Cl)ccc3n2n1	–	7.5	4.4	–	–	–

Structure (SMILES)	EC50 [1] [µM]	Ki [2] [µM]	Ki [3] [µM]	Ki [4] [µM]	Ki [5] [µM]	EC50 [6] [µM]
O=C(O)c1nc2c(O)nc3ccc([N+](=O)[O-])cc3n2n1	> 100	79.4	10.7	–	–	–
NNC(=O)c1nc2c(=O)[nH]c3cc(Cl)ccc3n2n1	–	–	–	5	9.6	–
O=C(O)c1nc2c(=O)[nH]c3cc(Br)ccc3n2n1	3.7	0.39	4.4	–	–	–
O=C(NCCO)c1nc2c(O)nc3cc(Cl)ccc3n2n1	–	27.7	7.7	–	–	–
O=C(O)c1nc2c(O)nc3cc(Cl)ccc3n2n1	2.9	0.17	0.78	–	–	–
CCOC(=O)Cc1nc2c(=O)[nH]c3cc(Cl)ccc3n2n1	–	6.5	2.1	–	–	–
O=C(O)c1nc2c(O)nc3cc(C(F)(F)F)ccc3n2n1	3.18	0.57	0.9	–	–	–
O=C(O)c1nc2c(O)nc3cc(Cl)c([N+](=O)[O-])cc3n2n1	–	2.2	1.2	–	–	–
COC(=O)CNC(=O)c1nc2c(=O)[nH]c3cc(Cl)ccc3n2n1	–	5.4	4.1	–	–	–
CCOC(=O)c1nc2c(=O)[nH]c3ccc(Cl)cc3n2n1	–	88.2	72.1	–	–	–
O=C(O)c1cc(O)c2c(Cl)cc(Cl)cc2n1	0.33	–	–	–	–	–
O=C(O)c1nc2c(=O)[nH]c3ccccc3n2n1	4.9	1.1	13.6	–	–	–
N#CCc1nc2c(O)nc3cc(Cl)ccc3n2n1	–	9.7	2	–	–	–
O=C(O)CNC(=O)c1nc2c(O)nc3cc(Cl)ccc3n2n1	–	8.8	3.2	–	–	–
CCOC(=O)c1nc2c(O)nc3ccccc3n2n1	69	16.7	28.5	–	–	–
O=C(O)c1nc2c(=O)[nH]c3cc(Cl)c(Cl)cc3n2n1	–	–	1.3	–	0.074	0.3
